Experimental data published in PubChem BioAssay (NCI).
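Method: 48-hour compound exposure of cells in 96-well plates, five concentrations, linear interpolation of endpoints. The concentration for full growth arrest is given as TGI.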

What follows are compounds tested on HL-60(TB) leukemia (assay: DTP human tumour cell line panel, 48 h).
CC(C)(Cl)C(Br)CCC(C)(Cl)C(Br)CBr (centres undefined) was tested, and the TGI was 35.4 µM. For O=C1NC(NNc2ccccc2)=N/C1=C\c1ccccc1O, the TGI was > 100 µM. With CC(C)(C)OC(=O)N1CCc2[nH][nH]c(=O)c2C1 the TGI was > 100 µM. In the case of O=Cc1cn(CCCCCCCCCCCCn2cc(C=O)c3ccccc32)c2ccccc12, the TGI was > 100 µM. COC(=O)c1ccc(C(=O)NC(Cc2ccc(Oc3cc(CC(NC(=O)c4ccccc4C(=O)OC)C(=O)OC)ccc3OC)cc2)C(=O)OC)cc1 (centres undefined) was tested, and the TGI was > 100 µM. COc1cc(C2SCC(=O)N2c2ccccn2)cc(OC)c1OC (centres undefined) was tested, and the TGI was > 100 µM. In the case of Nc1c2c(nc3cc(F)c(F)cc13)CCC2, the TGI was 10.1 µM. With Cc1cc2c(cc1Cl)SC(NS(=O)(=O)c1ccc(Cl)cc1)=NS2(=O)=O the TGI was > 100 µM. For COC(=O)CCC1=CCC2(SC)C(=O)Nc3cccc1c32 (centres undefined), the TGI was > 100 µM. CCCCc1c(N(C)C)c(OC(C)=O)c(-c2cn(C)c3ccccc23)oc1=O gave a TGI of 51.1 µM. For Nc1ccc2c(c1)N(C(=O)c1cc3cc(NC(=O)c4cc5ccccc5o4)ccc3[nH]1)CC2CCl (centres undefined), the TGI was > 100 µM.

The compounds below were run on SF-295 CNS (assay: DTP human tumour cell line panel, 48 h).
In the case of OC1[C@@H]2[C@@H](O)[C@H](O)[C@@H](O)N2C[C@@H]1O (some centres undefined), the TGI was > 100 µM. In the case of OCC1OC(c2cccc3cc(O)c(O)cc23)CC1O (centres undefined), the TGI was > 100 µM. Work on CC(C)(Cl)C(Br)CCC(C)(Cl)C(Br)CBr (centres undefined) yielded a TGI of 46 µM. With O=C1NC(NNc2ccccc2)=N/C1=C\c1ccccc1O the TGI was > 100 µM. In the case of Cc1cc(C)nc(NC(=O)c2ccc(Br)s2)c1, the TGI was > 100 µM. For CC(C)(C)OC(=O)N1CCc2[nH][nH]c(=O)c2C1, the TGI was > 100 µM. In the case of COC(=O)c1cc2c3c(ccc2[nH]1)N(C(=O)c1cc2cc(OC)c(OC)c(OC)c2[nH]1)CC3CCl (centres undefined), the TGI was > 100 µM. With OCCCCCCCCCCCOc1ccc(C2OCC3(CO2)COC(c2ccc(OCCCCCCCCCCCO)cc2)OC3)cc1 (centres undefined) the TGI was > 50 µM. With O=Cc1cn(CCCCCCCCCCCCn2cc(C=O)c3ccccc32)c2ccccc12 the TGI was > 100 µM. With COC(=O)c1ccc(C(=O)NC(Cc2ccc(Oc3cc(CC(NC(=O)c4ccccc4C(=O)OC)C(=O)OC)ccc3OC)cc2)C(=O)OC)cc1 (centres undefined) the TGI was > 100 µM. With COc1cc(C2SCC(=O)N2c2ccccn2)cc(OC)c1OC (centres undefined) the TGI was > 100 µM. With Nc1c2c(nc3cc(F)c(F)cc13)CCC2 the TGI was > 100 µM. Work on Cc1cc2c(cc1Cl)SC(NS(=O)(=O)c1ccc(Cl)cc1)=NS2(=O)=O yielded a TGI of 88.3 µM. With CS(=O)(=O)O[C@H]1CN2C[C@@H](O)[C@@H](O)[C@H]2[C@H]1CO the TGI was > 100 µM. CC1(C)CC(=O)c2[nH]c3ccccc3c2CC(=O)NCCc2cn1cn2 was tested, and the TGI was > 100 µM. COC(=O)CCC1=CCC2(SC)C(=O)Nc3cccc1c32 (centres undefined) was tested, and the TGI was > 100 µM. In the case of CCCCc1c(N(C)C)c(OC(C)=O)c(-c2cn(C)c3ccccc23)oc1=O, the TGI was > 100 µM. CC(C)(C)[Si](C)(C)OCC1OC(n2ccc(N)nc2=O)C(O[Si](C)(C)C(C)(C)C)C1O[Si](C)(C)C(C)(C)C (centres undefined) gave a TGI of 3.75 µM. With O=C(O)c1ccc(N=C(C(=Nc2ccc(C(=O)O)cc2)c2ccccc2)c2ccccc2)cc1 the TGI was > 100 µM.

What follows are compounds tested on COLO 205 colon (assay: DTP human tumour cell line panel, 48 h).
For OC1[C@@H]2[C@@H](O)[C@H](O)[C@@H](O)N2C[C@@H]1O (some centres undefined), the TGI was > 100 µM. Compound CC(C)(Cl)C(Br)CCC(C)(Cl)C(Br)CBr (centres undefined) has a TGI of 33.8 µM. O=C1NC(NNc2ccccc2)=N/C1=C\c1ccccc1O was tested, and the TGI was > 100 µM. Cc1cc(C)nc(NC(=O)c2ccc(Br)s2)c1 gave a TGI of 23.5 µM. CC(C)(C)OC(=O)N1CCc2[nH][nH]c(=O)c2C1 was tested, and the TGI was > 100 µM. For COC(=O)c1cc2c3c(ccc2[nH]1)N(C(=O)c1cc2cc(OC)c(OC)c(OC)c2[nH]1)CC3CCl (centres undefined), the TGI was > 20.9 µM. OCCCCCCCCCCCOc1ccc(C2OCC3(CO2)COC(c2ccc(OCCCCCCCCCCCO)cc2)OC3)cc1 (centres undefined) was tested, and the TGI was > 50 µM. O=Cc1cn(CCCCCCCCCCCCn2cc(C=O)c3ccccc32)c2ccccc12 was tested, and the TGI was > 100 µM. With COC(=O)c1ccc(C(=O)NC(Cc2ccc(Oc3cc(CC(NC(=O)c4ccccc4C(=O)OC)C(=O)OC)ccc3OC)cc2)C(=O)OC)cc1 (centres undefined) the TGI was > 100 µM. For COc1cc(C2SCC(=O)N2c2ccccn2)cc(OC)c1OC (centres undefined), the TGI was > 100 µM. With Nc1c2c(nc3cc(F)c(F)cc13)CCC2 the TGI was > 100 µM. In the case of Cc1cc2c(cc1Cl)SC(NS(=O)(=O)c1ccc(Cl)cc1)=NS2(=O)=O, the TGI was > 100 µM. In the case of CS(=O)(=O)O[C@H]1CN2C[C@@H](O)[C@@H](O)[C@H]2[C@H]1CO, the TGI was > 100 µM. In the case of CC1(C)CC(=O)c2[nH]c3ccccc3c2CC(=O)NCCc2cn1cn2, the TGI was > 100 µM. With COC(=O)CCC1=CCC2(SC)C(=O)Nc3cccc1c32 (centres undefined) the TGI was > 100 µM. Work on CCCCc1c(N(C)C)c(OC(C)=O)c(-c2cn(C)c3ccccc23)oc1=O yielded a TGI of 44.1 µM. Work on CC(C)(C)[Si](C)(C)OCC1OC(n2ccc(N)nc2=O)C(O[Si](C)(C)C(C)(C)C)C1O[Si](C)(C)C(C)(C)C (centres undefined) yielded a TGI of 9.84 µM. Compound Nc1ccc2c(c1)N(C(=O)c1cc3cc(NC(=O)c4cc5ccccc5o4)ccc3[nH]1)CC2CCl (centres undefined) has a TGI of 1.6 µM. With O=C(O)c1ccc(N=C(C(=Nc2ccc(C(=O)O)cc2)c2ccccc2)c2ccccc2)cc1 the TGI was > 100 µM.

These compounds were tested on M14 melanoma (assay: DTP human tumour cell line panel, 48 h).
OC1[C@@H]2[C@@H](O)[C@H](O)[C@@H](O)N2C[C@@H]1O (some centres undefined) was tested, and the TGI was > 100 µM. In the case of OCC1OC(c2cccc3cc(O)c(O)cc23)CC1O (centres undefined), the TGI was > 100 µM. CC(C)(Cl)C(Br)CCC(C)(Cl)C(Br)CBr (centres undefined) was tested, and the TGI was > 100 µM. O=C1NC(NNc2ccccc2)=N/C1=C\c1ccccc1O was tested, and the TGI was > 100 µM. With Cc1cc(C)nc(NC(=O)c2ccc(Br)s2)c1 the TGI was 79.5 µM. In the case of CC(C)(C)OC(=O)N1CCc2[nH][nH]c(=O)c2C1, the TGI was > 100 µM. With COC(=O)c1cc2c3c(ccc2[nH]1)N(C(=O)c1cc2cc(OC)c(OC)c(OC)c2[nH]1)CC3CCl (centres undefined) the TGI was > 100 µM. For OCCCCCCCCCCCOc1ccc(C2OCC3(CO2)COC(c2ccc(OCCCCCCCCCCCO)cc2)OC3)cc1 (centres undefined), the TGI was > 50 µM. For O=Cc1cn(CCCCCCCCCCCCn2cc(C=O)c3ccccc32)c2ccccc12, the TGI was > 100 µM. COC(=O)c1ccc(C(=O)NC(Cc2ccc(Oc3cc(CC(NC(=O)c4ccccc4C(=O)OC)C(=O)OC)ccc3OC)cc2)C(=O)OC)cc1 (centres undefined) was tested, and the TGI was > 100 µM. For COc1cc(C2SCC(=O)N2c2ccccn2)cc(OC)c1OC (centres undefined), the TGI was > 100 µM. Nc1c2c(nc3cc(F)c(F)cc13)CCC2 was tested, and the TGI was > 100 µM. Cc1cc2c(cc1Cl)SC(NS(=O)(=O)c1ccc(Cl)cc1)=NS2(=O)=O was tested, and the TGI was > 100 µM. With CS(=O)(=O)O[C@H]1CN2C[C@@H](O)[C@@H](O)[C@H]2[C@H]1CO the TGI was > 100 µM. In the case of CC1(C)CC(=O)c2[nH]c3ccccc3c2CC(=O)NCCc2cn1cn2, the TGI was > 100 µM. COC(=O)CCC1=CCC2(SC)C(=O)Nc3cccc1c32 (centres undefined) was tested, and the TGI was > 100 µM. Compound CCCCc1c(N(C)C)c(OC(C)=O)c(-c2cn(C)c3ccccc23)oc1=O has a TGI of 35.8 µM. CC(C)(C)[Si](C)(C)OCC1OC(n2ccc(N)nc2=O)C(O[Si](C)(C)C(C)(C)C)C1O[Si](C)(C)C(C)(C)C (centres undefined) was tested, and the TGI was 3.24 µM. With O=C(O)c1ccc(N=C(C(=Nc2ccc(C(=O)O)cc2)c2ccccc2)c2ccccc2)cc1 the TGI was > 100 µM.

The compounds below were run on LOX IMVI melanoma (assay: DTP human tumour cell line panel, 48 h).
With OC1[C@@H]2[C@@H](O)[C@H](O)[C@@H](O)N2C[C@@H]1O (some centres undefined) the TGI was > 100 µM. In the case of OCC1OC(c2cccc3cc(O)c(O)cc23)CC1O (centres undefined), the TGI was > 100 µM. O=C1NC(NNc2ccccc2)=N/C1=C\c1ccccc1O was tested, and the TGI was > 100 µM. With Cc1cc(C)nc(NC(=O)c2ccc(Br)s2)c1 the TGI was > 100 µM. In the case of COC(=O)c1cc2c3c(ccc2[nH]1)N(C(=O)c1cc2cc(OC)c(OC)c(OC)c2[nH]1)CC3CCl (centres undefined), the TGI was > 100 µM. In the case of OCCCCCCCCCCCOc1ccc(C2OCC3(CO2)COC(c2ccc(OCCCCCCCCCCCO)cc2)OC3)cc1 (centres undefined), the TGI was > 50 µM. O=Cc1cn(CCCCCCCCCCCCn2cc(C=O)c3ccccc32)c2ccccc12 was tested, and the TGI was > 100 µM. For COC(=O)c1ccc(C(=O)NC(Cc2ccc(Oc3cc(CC(NC(=O)c4ccccc4C(=O)OC)C(=O)OC)ccc3OC)cc2)C(=O)OC)cc1 (centres undefined), the TGI was > 100 µM. COc1cc(C2SCC(=O)N2c2ccccn2)cc(OC)c1OC (centres undefined) was tested, and the TGI was > 100 µM. With Nc1c2c(nc3cc(F)c(F)cc13)CCC2 the TGI was > 100 µM. With Cc1cc2c(cc1Cl)SC(NS(=O)(=O)c1ccc(Cl)cc1)=NS2(=O)=O the TGI was > 100 µM. For CS(=O)(=O)O[C@H]1CN2C[C@@H](O)[C@@H](O)[C@H]2[C@H]1CO, the TGI was > 100 µM. With CC1(C)CC(=O)c2[nH]c3ccccc3c2CC(=O)NCCc2cn1cn2 the TGI was > 100 µM. With COC(=O)CCC1=CCC2(SC)C(=O)Nc3cccc1c32 (centres undefined) the TGI was > 100 µM. Work on CC(C)(C)[Si](C)(C)OCC1OC(n2ccc(N)nc2=O)C(O[Si](C)(C)C(C)(C)C)C1O[Si](C)(C)C(C)(C)C (centres undefined) yielded a TGI of 3.23 µM. In the case of Nc1ccc2c(c1)N(C(=O)c1cc3cc(NC(=O)c4cc5ccccc5o4)ccc3[nH]1)CC2CCl (centres undefined), the TGI was > 100 µM. With O=C(O)c1ccc(N=C(C(=Nc2ccc(C(=O)O)cc2)c2ccccc2)c2ccccc2)cc1 the TGI was > 100 µM.

Each compound was assayed on HOP-62 NSCLC (assay: DTP human tumour cell line panel, 48 h).
With OC1[C@@H]2[C@@H](O)[C@H](O)[C@@H](O)N2C[C@@H]1O (some centres undefined) the TGI was > 100 µM. In the case of OCC1OC(c2cccc3cc(O)c(O)cc23)CC1O (centres undefined), the TGI was > 100 µM. In the case of CC(C)(Cl)C(Br)CCC(C)(Cl)C(Br)CBr (centres undefined), the TGI was 57.3 µM. O=C1NC(NNc2ccccc2)=N/C1=C\c1ccccc1O was tested, and the TGI was > 100 µM.
